Source: patent US8232406B2, “c-MET protein kinase inhibitors” (Vertex Pharmaceuticals Incorporated, priority 2006, dated 2012)

Molecular target: c-MET (Homo sapiens, UniProt P08581)
Test: Ki determination for the inhibition of c-MET (standard radiometric 33P-ATP kinase assay, polyE4Y substrate)
Format: biochemical
Conditions: 1.0 nM c-Met, 35 μM ATP, 0.5 mg/mL polyE4Y, 20 min; competitive tight-binding fit
Outline: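 Ki obtained by fitting data to competitive tight-binding inhibition kinetics. c-Met at 1.0 nM phosphorylated polyE4Y (0.5 mg/mL) with 35 μM 33P-ATP for 20 min in pH 7.5 HEPES buffer with MgCl2, NaCl, BSA and DTT. Incorporated label measured by scintillation after TCA precipitation on filters.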

Chain of c-MET (P08581 25-1390): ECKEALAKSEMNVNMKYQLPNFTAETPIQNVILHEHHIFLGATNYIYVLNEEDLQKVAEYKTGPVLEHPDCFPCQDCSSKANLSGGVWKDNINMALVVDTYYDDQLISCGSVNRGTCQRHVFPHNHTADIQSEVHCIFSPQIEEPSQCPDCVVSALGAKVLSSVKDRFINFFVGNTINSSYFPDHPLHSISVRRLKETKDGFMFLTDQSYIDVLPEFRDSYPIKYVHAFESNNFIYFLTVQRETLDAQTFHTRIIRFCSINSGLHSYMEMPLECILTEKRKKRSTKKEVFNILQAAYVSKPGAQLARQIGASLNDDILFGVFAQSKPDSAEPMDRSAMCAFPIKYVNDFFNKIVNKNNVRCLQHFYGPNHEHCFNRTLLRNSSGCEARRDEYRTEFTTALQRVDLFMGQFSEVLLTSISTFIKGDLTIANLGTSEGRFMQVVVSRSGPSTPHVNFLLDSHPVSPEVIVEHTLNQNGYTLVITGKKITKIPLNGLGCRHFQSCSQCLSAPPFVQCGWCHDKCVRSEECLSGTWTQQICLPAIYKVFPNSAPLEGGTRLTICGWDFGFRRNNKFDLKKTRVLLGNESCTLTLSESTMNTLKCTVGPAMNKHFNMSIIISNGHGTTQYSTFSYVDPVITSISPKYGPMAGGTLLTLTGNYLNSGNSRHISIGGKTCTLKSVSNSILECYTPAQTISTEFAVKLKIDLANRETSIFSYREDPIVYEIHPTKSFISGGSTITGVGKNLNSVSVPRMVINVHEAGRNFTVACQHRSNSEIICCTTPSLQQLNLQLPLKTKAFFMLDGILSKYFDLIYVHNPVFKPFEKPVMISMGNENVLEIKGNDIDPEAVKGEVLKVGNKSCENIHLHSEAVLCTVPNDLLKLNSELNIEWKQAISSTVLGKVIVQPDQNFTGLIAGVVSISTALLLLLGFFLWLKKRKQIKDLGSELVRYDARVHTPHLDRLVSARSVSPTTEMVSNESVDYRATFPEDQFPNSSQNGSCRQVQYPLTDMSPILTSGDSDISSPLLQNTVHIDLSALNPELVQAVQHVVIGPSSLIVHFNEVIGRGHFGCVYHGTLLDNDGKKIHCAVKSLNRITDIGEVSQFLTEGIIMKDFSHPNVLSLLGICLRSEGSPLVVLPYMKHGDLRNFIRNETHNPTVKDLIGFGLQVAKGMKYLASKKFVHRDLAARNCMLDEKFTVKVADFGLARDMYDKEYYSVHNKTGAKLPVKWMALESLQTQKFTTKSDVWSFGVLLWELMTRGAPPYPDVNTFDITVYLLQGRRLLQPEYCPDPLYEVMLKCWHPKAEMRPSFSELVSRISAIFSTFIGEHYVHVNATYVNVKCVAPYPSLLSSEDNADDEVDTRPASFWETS

Structure (SMILES)	Ki
Nc1ncc(-c2cnn(C3CCCNCC3)c2)cc1-c1nnnn1-c1cccc(Cl)c1Cl (stereo not shown) [I-A-429]	≤ 100 nM
Nc1ncc(C2=CCN(C(=O)[C@@H]3CCC(=O)N3)CC2)cc1-c1nnnn1-c1cccc(F)c1F [I-A-642]	≤ 100 nM
CC(C)(O)c1ccc(-c2cnc(N)c(-c3nnnn3-c3cccc(F)c3F)c2)cc1 [I-A-268]	≤ 100 nM
Nc1ncc(-c2ccc(C(N)C(=O)O)cc2)cc1-c1nnnn1-c1cccc(F)c1F (stereo not shown) [I-A-205]	100 to 1000 nM
Nc1ncc(-c2cnn(CC3CCNC3)c2)cc1-c1nnnn1-c1cccc(F)c1F (stereo not shown) [I-A-501]	≤ 100 nM
CC(=O)Nc1ccc(-c2cnc(N)c(-c3nnnn3-c3cccc(Cl)c3Cl)c2)cc1 [I-A-81]	≤ 100 nM
COc1ccc(-c2cnc(N)c(-c3nnnn3-c3cccc(F)c3F)c2)cc1 [I-A-222]	≤ 100 nM
Nc1ncc(-c2ccc(CO)cc2)cc1-c1nncn1-c1cccc(Cl)c1Cl [I-A-78]	100 to 1000 nM
Nc1ncc(-c2cnn([C@H]3CCOC3)c2)cc1-c1nnnn1-c1cccc(F)c1F [I-A-425]	≤ 100 nM
CS(=O)(=O)Nc1ccc(-c2cnc(N)c(-c3nnnn3-c3cccc(F)c3F)c2)cc1 [I-A-353]	100 to 1000 nM
CN1CCN(c2ccc(-c3cnc(N)c(-c4nnnn4-c4cccc(F)c4F)c3)cc2)CC1 [I-A-19]	≤ 100 nM
Nc1ncc(-c2ccc(CN3CCN(Cc4ccncc4)CC3)cc2)cc1-c1nnnn1-c1cccc(Cl)c1Cl [I-A-105]	100 to 1000 nM
CC(=O)Nc1ccc(-c2cnc(N)c(-c3nnnn3-c3cccc(F)c3F)c2)s1 [I-A-263]	≤ 100 nM
CC(=O)Nc1ccc(-c2cnc(N)c(-c3nnnn3-c3cccc(F)c3F)c2)cc1 [I-A-138]	≤ 100 nM
CN1CCN(c2ccc(-c3cnc(N)c(-c4nnnn4-c4cccc(F)c4F)n3)cc2)CC1 [I-A-46]	≤ 100 nM
CC(=O)Nc1cccc(-c2cnc(N)c(-c3nnnn3-c3c(F)ccc(F)c3Cl)c2)c1 [I-A-613]	100 to 1000 nM
CC(=O)Nc1ccc(-c2cnc(N)c(-c3nnnn3-c3c(F)cccc3F)c2)cc1 [I-A-607]	100 to 1000 nM
Nc1ncc(-c2ccc(S(N)(=O)=O)s2)cc1-c1nnnn1-c1cccc(F)c1F [I-A-187]	≤ 100 nM
CCNC(=O)Nc1nc2cc(OC)c(-c3cnc(N)c(-c4nnnn4-c4cccc(F)c4F)n3)cc2[nH]1 [I-A-55]	100 to 1000 nM
Nc1ncc(C2=CCN(C(=O)C[C@@H]3CCCN3)CC2)cc1-c1nnnn1-c1cccc(F)c1F [I-A-505]	≤ 100 nM
CN(C)CCCNC(=O)c1ccc(-c2cnc(N)c(-c3nnnn3-c3cccc(F)c3F)c2)cc1 [I-A-136]	≤ 100 nM

Structure (SMILES)	Ki
CC(=O)Nc1ccc(-c2cnc(N)c(-c3nnnn3-c3cc(Cl)ccc3C)c2)cc1 [I-A-576]	100 to 1000 nM
Nc1ncc(-c2ccc3c(c2)OC(F)(F)O3)cc1-c1nnnn1-c1cccc(F)c1F [I-A-285]	100 to 1000 nM
CC(=O)N1CCN(Cc2ccc(-c3cnc(N)c(-c4nc5cnccc5n4-c4cccc(F)c4F)c3)cc2)CC1 [I-D-6]	≤ 100 nM
Nc1ncc(C2=CCCNCC2)cc1-c1nnnn1-c1cccc(F)c1F [I-A-646]	100 to 1000 nM
CC(C)CN1CCC(n2cc(-c3cnc(N)c(-c4nnnn4-c4cccc(Cl)c4F)c3)cn2)CC1 [I-A-475]	≤ 100 nM
Nc1ncc(-c2ccc(CN3CCCC3)cc2)cc1-c1nc2cccnc2n1-c1cccc(Cl)c1F [I-D-14]	100 to 1000 nM
CCOc1cccc(-c2cnc(N)c(-c3nnnn3-c3cccc(F)c3F)c2)c1 [I-A-315]	100 to 1000 nM
Nc1ncc(C2=CCN(C(=O)C3CC3)CC2)cc1-c1nnnn1-c1cccc(F)c1F [I-A-523]	≤ 100 nM
Nc1ncc(-c2cnn(C3CC4CCC(C3)N4)c2)cc1-c1nnnn1-c1cccc(Cl)c1F (stereo not shown) [I-A-528]	≤ 100 nM
CN(C)CCn1cc(-c2cnc(N)c(-c3nnnn3-c3cccc(F)c3F)c2)cn1 [I-A-406]	≤ 100 nM
CN1CCN(Cc2ccc(-c3cnc(N)c(-c4nnnn4-c4cccc(F)c4F)c3)cc2)CC1 [I-A-62, 3-(1-(2,3-Difluorophenyl)-1H-tetrazol-5-yl)-5-(4-((4-methylpiperazin-1-yl)methyl)phenyl)pyridin-2-amine]	≤ 100 nM
CN(CCC#N)Cc1ccc(-c2cnc(N)c(-c3nnnn3-c3cccc(F)c3F)c2)cc1 [I-A-148]	≤ 100 nM
CN1CCN(c2ccc(-c3cnc(N)c(-c4nc5cc(F)ccc5n4-c4cccc(Cl)c4F)c3)cc2)CC1 [I-D-21]	100 to 1000 nM
Nc1ncc(-c2cnn([C@@H]3CCOC3)c2)cc1-c1nnnn1-c1cccc(-c2cnn([C@@H]3CCOC3)c2)c1F [I-A-421]	100 to 1000 nM
CC(C)(C)C(=O)Nc1ccc(-c2cnc(N)c(-c3nnnn3-c3cccc(F)c3F)c2)cc1 [I-A-194]	100 to 1000 nM
Nc1ncc(-c2cnn([C@H]3CCNC3)c2)cc1-c1nnnn1-c1cccc(Cl)c1Cl [I-A-413]	≤ 100 nM
Nc1ncc(-c2cccnc2)cc1-c1nnnn1-c1c(F)cccc1F [I-A-608]	100 to 1000 nM
CN(C)CCn1cc(-c2cnc(N)c(-c3nc4cnccc4n3-c3cccc(F)c3F)c2)cn1 [I-D-9]	≤ 100 nM
CC(=O)c1cccc(-c2cnc(N)c(-c3nnnn3-c3cccc(F)c3F)c2)c1 [I-A-218]	≤ 100 nM
CC(c1ccc(-c2cnc(N)c(-c3nnnn3-c3cccc(F)c3F)c2)cc1)N1CCCC1 (stereo not shown) [I-A-180]	≤ 100 nM
Nc1ncc(-c2ccc(NC(=O)Nc3cccnc3)cc2)cc1-c1nnnn1-c1cccc(F)c1F [I-A-278]	100 to 1000 nM

Structure (SMILES)	Ki
CC(=O)Nc1ccc(-c2cnc(N)c(-c3nncn3-c3cccc(F)c3F)n2)cc1 [I-A-11]	≤ 100 nM
Nc1ncc(-c2ccncc2)nc1-c1nnc(O)n1-c1cccc(F)c1F [I-A-15]	100 to 1000 nM
CC(=O)Nc1ccc(-c2cnc(N)c(-c3nncn3-c3cccc(Cl)c3Cl)c2)cc1 [I-A-76]	100 to 1000 nM
Nc1ncc(-c2ccncc2)cc1-c1nnnn1-c1cccc(Cl)c1Cl [I-A-84]	100 to 1000 nM
N#CCC(=O)Nc1ccc(-c2cnc(N)c(-c3nnnn3-c3cccc(F)c3F)c2)cc1 [I-A-334]	≤ 100 nM
Nc1ncc(-c2ccc(N3CCCC3)nc2)cc1-c1nnsc1-c1cccc(Cl)c1Cl [I-C-4]	100 to 1000 nM
Nc1ncc(-c2cnn([C@@H]3CCCNC3)c2)cc1-c1nnnn1-c1cccc(Cl)c1Cl [I-A-418]	≤ 100 nM
CN(C)Cc1ccc(-c2cnc(N)c(-c3nnnn3-c3cccc(F)c3F)n2)cc1 [I-A-48]	≤ 100 nM
CC(=O)Nc1cccc(-c2cnc(N)c(-c3nnnn3-c3cc(F)cc(F)c3Cl)c2)c1 [I-A-570]	100 to 1000 nM
Nc1ncc(-c2ccc(Cl)cc2)cc1-c1nncn1-c1cccc(F)c1F [I-A-114]	100 to 1000 nM
CC(=O)c1ccc(-c2cnc(N)c(-c3nnnn3-c3cccc(F)c3F)c2)cc1 [I-A-219]	≤ 100 nM
COCCOC(=O)Nc1ccc(-c2cnc(N)c(-c3nnnn3-c3cccc(F)c3F)c2)cc1 [I-A-277]	≤ 100 nM
N#Cc1cccc(-c2cnc(N)c(-c3nnnn3-c3cccc(F)c3F)c2)c1 [I-A-228]	100 to 1000 nM
Nc1ncc(-c2ccccc2O)cc1-c1nncn1-c1cccc(Cl)c1Cl [I-A-75]	100 to 1000 nM
N#Cc1ccc(-c2cnc(N)c(-c3nnnn3-c3cccc(F)c3F)c2)cc1 [I-A-229]	100 to 1000 nM
Nc1ncc(-c2ccc(CN3CCCC3)c([N+](=O)[O-])c2)cc1-c1nnnn1-c1cccc(F)c1F [I-A-340]	≤ 100 nM
CSc1ccc(-c2cnc(N)c(-c3nnnn3-c3cccc(F)c3F)c2)cc1 [I-A-251]	≤ 100 nM
Nc1ncc(-c2cccnc2)nc1-c1nncn1-c1cccc(F)c1F [I-A-2]	100 to 1000 nM
COc1ccc(F)cc1-n1nnnc1-c1cc(-c2ccc(NC(C)=O)cc2)cnc1N [I-A-585]	100 to 1000 nM
CCCN1CCC(n2cc(-c3cnc(N)c(-c4nnnn4-c4cccc(F)c4F)c3)cn2)CC1 [I-A-461]	≤ 100 nM
Nc1ncc(-c2cnn(CC(O)CO)c2)cc1-c1nnnn1-c1cccc(F)c1F (stereo not shown) [I-A-368]	≤ 100 nM

Structure (SMILES)	Ki
Nc1ncc(-c2ccc(NC(=O)CO)cc2)cc1-c1nnnn1-c1cccc(F)c1F [I-A-338]	≤ 100 nM
CN(C)c1ccc(-c2cnc(N)c(-c3nnnn3-c3cccc(F)c3F)c2)cc1 [I-A-234]	≤ 100 nM
Nc1ncc(-c2cnn([C@H]3CCCNC3)c2)nc1-c1nnnn1-c1cccc(F)c1F [I-A-655]	≤ 100 nM
Nc1ncc(-c2ccc(N3CCCC3=O)cc2)cc1-c1nnnn1-c1cccc(F)c1F [I-A-189]	≤ 100 nM
Cc1nnc(-c2cnc(N)c(-c3nnnn3-c3cccc(F)c3F)c2)s1 [I-A-494]	100 to 1000 nM
Nc1ncc(-c2cnn(C3CCNCC3)c2)cc1-c1nncn1-c1cccc(Cl)c1F [I-A-438]	≤ 100 nM
Nc1ncc(-c2cn[nH]c2)cc1-c1nnnn1-c1cccc(F)c1F [I-A-366]	≤ 100 nM
CS(=O)(=O)Nc1cccc(-c2cnc(N)c(-c3nnnn3-c3cccc(F)c3F)c2)c1 [I-A-254]	≤ 100 nM
Nc1ncc(-c2ccc(NC(=O)CN3CCC[C@H]3CO)cc2)cc1-c1nnnn1-c1cccc(F)c1F [I-A-160]	100 to 1000 nM
Nc1ncc(-c2cnn([C@@H]3CCNC3)c2)nc1-c1nnnn1-c1cccc(F)c1F [I-A-660]	≤ 100 nM
Nc1ncc(-c2cccc(CN3CCCC3)c2)cc1-c1nnnn1-c1cccc(Cl)c1Cl [I-A-109]	≤ 100 nM
COc1ccc(F)cc1-n1nnnc1-c1cc(-c2ccc(CN(C)C)cc2)cnc1N [I-A-606]	100 to 1000 nM
Nc1ncc(-c2ccc(CN3CCCC3)cc2)cc1-c1nnc(O)n1-c1cccc(F)c1F [I-A-362]	100 to 1000 nM
Nc1ncc(C2=CCN(C(=O)[C@@H]3CCCN3)CC2)cc1-c1nnnn1-c1cccc(F)c1F [I-A-504]	≤ 100 nM
CC(=O)c1ccc(-c2cnc(N)c(-c3nnnn3-c3cccc(Cl)c3Cl)c2)cc1 [I-A-88]	100 to 1000 nM
CN1CCN(Cc2ccc(-c3cnc(N)c(-c4nc5cnccc5n4-c4cccc(F)c4F)c3)cc2)CC1 [I-D-5]	≤ 100 nM
COC(=O)C(C)(C)c1ccc(-c2cnc(N)c(-c3nnnn3-c3cccc(F)c3F)c2)cc1 [I-A-207]	≤ 100 nM
CN(C)C1CCN(Cc2ccc(-c3cnc(N)c(-c4nnnn4-c4cccc(F)c4F)c3)cc2)C1 (stereo not shown) [I-A-147]	≤ 100 nM
CN1CCN(c2ccc(-c3cnc(N)c(-c4nnsc4-c4cccc(Cl)c4Cl)c3)cc2)CC1 [I-C-3]	≤ 100 nM
